Laboratory results as given in patent publication US20230219964A1, “ANTIBACTERIAL AND ANTIFUNGAL PLEUROMUTILIN CONJUGATES” (SYDDANSK UNIVERSITET, priority 2020, published 2023).
Values after ≈ are worked out from the molar mass of the structure shown.

What was measured:
[1] = system: Multi-resistant Staphylococcus aureus (MRSA) USA300 cells; assay: MIC in vitro broth micro-dilution assay, MRSA USA300; assay type: cell-based; settings: lowest concentration to fully inhibit visible growth (OD600), ATCC strain; for MIC: Staphylococcus aureus, read-out: in vitro susceptibility (MIC) MRSA USA3000
Experimental: (§1) Bacterial susceptibility was established through an in vitro cell-based broth micro-dilution assay. To produce accurate and reproducible MIC-values, a procedure was used which follows the guidelines set by the Clinical and Laboratory Standards Institute (CLSI, USA) and the European Committee on Antimicrobial Susceptibility Testing (EUCAST). The micro-dilutions were carried out in 96-well plates, according to FIG. 3, wherein column 1 is a growth control, Columns 2 to 11 are dilutions of 1×, 2×, 4×, 8×, 16×, 32×, 64×, 128×, 256×, 512× respectively, and column 12 is a sterile control. To further increase the reliability of each susceptibility test, inoculation involved the use of three independent overnight cultures (ON1-ON3) thus giving rise to […]. Furthermore, each ON was added to two individual dilution rows, giving rise to […]. The standard inoculum was set to ˜5-10^5 colony-forming units (CFU) mL^−1. This was verified by dilution onto agar plates after each overall run.
(§2) The applied procedure was:
(§3) 1.1 MH or BHI agar plates for dilutions were created, 1 plate per overnight (ON) culture and MH or BHI media. 1.2 Day 1: Preparation of ON cultures of the bacterial strain in question, by inoculation of a single colony in 5 mL of MH or BHI media. Then incubation at 37° C. with aeration for approximately 16-20 hours. Biological triplicates were created by inoculation from 3 different colonies per strain.
(§4) 1.3 Day 2: A 96-well plate with the antibiotic/compound in question was prepared as according to FIG. 3: 1.4 In a 15 mL falcon tube, an appropriate volume of a 1000 μg/mL antibiotic/compound DMSO stock was diluted with MH or BHI media such that a 2× concentration and total volume of 10 mL was achieved. 1.5 A multi-channel pipette was used in the following. 1.6 Column 1 was used for growth control, so no antibiotic/compound was added to that column. 1.7 200 μl of 2× concentration of the antibiotic/compound was added to column 2. Technical duplicates were always created, thus 2 columns per ON culture. 1.8 100 μl of MH or BHI media was added to columns 1, 3-11 and 200 μl of MH or BHI media to column 12. 1.9 100 μl was transferred from column 2 to column 3. The same pipetting tips were used to transfer 100 μL from column 3 to 4. This scheme was repeated until column 11 where 100 μl was discarded after re-suspending. Column 12 was used as a sterile control, so no antibiotic/compound was added to that column. Each transferring involved pipetting up and down 5 to 7 times. 1.10 The plates were fully dried for CFU in the 42° C. incubator, 4× dilutions in triplicates per one plate.
(§5) 1.11 The optical density of bacterial cells in the ON culture was measured at wavelength 600 nm (OD600). Then the ON culture was diluted to an OD600=0.1. 1.12 Then the OD600 was re-measured to make certain that it was between 0.08 and 0.13. 1.13 The prepared 0.1 culture of 1.12 was diluted 100× more by transferring of 100 μl thereof, to 10 ml of MH or BHI media (enough for a 96-well plate). 1.14 Then 200 μl of the 100× dilution in 1.13 was transferred to Eppendorf tubes and kept cold until use. 1.15 100 μl of culture with an OD600 on approximately 0.001 was dispensed to each well of columns 1 to 11. 1.16 The plate was closed. Covered with aluminium foil and small holes were created with a 100-200 μL tip.
(§6) 1.17 The 96-well plate was then incubated at 37° C. with agitation and left for 16-hours.
(§7) 1.18 Verification of standard inoculum: The 100× diluted culture of 1.13 was used to create 10^−1 to 10^−4 dilutions in PBS/0.9% saline (100 μl sample to 900 μl PBS, mix well and continue until 10^−4). 1.19 10 μl of the 10^−2, 10^−3 and 10^−4 dilutions in 1.18 were spotted onto very dry MH or BHI plates in triplicates. 1.20 Then incubated overnight at 37° C. 1.21 The plates were examined manually or by using the plate reader.

[2] = system: E. faecalis cells; assay: MIC in vitro broth micro-dilution assay, E. faecalis; assay type: cell-based, Enterococcus faecalis; settings: lowest concentration to fully inhibit visible growth (OD600), clinical isolate; for MIC: Enterococcus faecalis, read-out: in vitro susceptibility (MIC) E. Faecalis
Experimental: as §1, §2, §3, §4, §5, §6, §7

[3] = system: vancomycin-resistant enterococci (VRE) cells, VRE 5; assay: MIC in vitro broth micro-dilution assay, VRE 5; assay type: cell-based; settings: lowest concentration to fully inhibit visible growth (OD600), clinical isolate, ampicillin, ciprofloxacin, vancomycin and linezolid resistant; for MIC: Enterococcus, VRE, read-out: in vitro susceptibility (MIC) VRE 5
Experimental: as §1, §2, §3, §4, §5, §6, §7

[4] = system: vancomycin-resistant enterococci (VRE) cells, VRE 1; assay: MIC in vitro broth micro-dilution assay, VRE 1; assay type: cell-based; settings: lowest concentration to fully inhibit visible growth (OD600), clinical isolate, ampicillin, ciprofloxacin and vancomycin resistant; for MIC: Enterococcus, VRE, read-out: in vitro susceptibility (MIC) VRE 1
Experimental: as §1, §2, §3, §4, §5, §6, §7

[5] = system: S. pneumonia cells; assay: MIC in vitro broth micro-dilution assay, S. pneumonia; assay type: cell-based, Streptococcus pneumonia; settings: lowest concentration to fully inhibit visible growth (OD600), clinical isolate; for MIC: Streptococcus pneumoniae, read-out: in vitro susceptibility (MIC) S. Pneumonia
Experimental: as §1, §2, §3, §4, §5, §6, §7

Molecule | MIC [1] [mg/L] | MIC [2] [mg/L] | MIC [3] [mg/L] | MIC [4] [mg/L] | MIC [5] [mg/L] | also measured
C=C[C@]1(C)C[C@@H](OC(=O)Cn2cc(-c3ccc(Cn4cnc5c(N6CCNCC6)ncnc54)nc3)nn2)[C@]2(C)[C@H](C)CC[C@]3(CCC(=O)[C@H]32)[C@@H](C)[C@@H]1O [C10, 22-[4-(6-((6-(piperazin-1-yl)-9H-purin-9-yl)methyl)pyridin-3-yl)-1H-1,2,3-triazol-1-yl]-22-deoxypleuromutilin] | 0.12 to 0.25 (≈ 0.166 to 0.346 µM) | 0.03 (≈ 0.0415 µM) | 0.12 (≈ 0.166 µM) | 0.03 (≈ 0.0415 µM) | 0.03 (≈ 0.0415 µM) | –
C=C[C@]1(C)C[C@@H](OC(=O)Cn2cc(-c3ccc(Cn4cnc5c(N)nc(F)nc54)cc3)nn2)[C@]2(C)[C@H](C)CC[C@]3(CCC(=O)[C@H]32)[C@@H](C)[C@@H]1O [C5, 22-[4-(4-((6-Amino-2-fluoro-9H-purin-9-yl)methyl)phenyl)-1H-1,2,3-triazol-1-yl]-22-deoxypleuromutilin] | 0.06 (≈ 0.0894 µM) | – | – | – | – | –
C=C[C@]1(C)C[C@@H](OC(=O)Cn2cc(-c3ccc(CO)cc3)nn2)[C@]2(C)[C@H](C)CC[C@]3(CCC(=O)[C@H]32)[C@@H](C)[C@@H]1O [C4, 22-[4-(4-(hydroxymethyl)phenyl)-1H-1,2,3-triazol-1-yl]-22-deoxypleuromutilin] | 0.25 (≈ 0.467 µM) | 2 (≈ 3.73 µM) | 1 (≈ 1.87 µM) | 1 (≈ 1.87 µM) | 4 (≈ 7.47 µM) | –
Valnemulin [reference compound] | – | – | – | – | – | in vitro susceptibility (MIC) MRSA USA3000 [1]: 0.06 mg/L; in vitro susceptibility (MIC) E. Faecalis [2]: 0.03 mg/L; in vitro susceptibility (MIC) VRE 5 [3]: 0.015 mg/L; in vitro susceptibility (MIC) VRE 1 [4]: 0.03 mg/L; in vitro susceptibility (MIC) S. Pneumonia [5]: 0.06 to 0.12 mg/L
C=C[C@]1(C)C[C@@H](CC(=O)Cn2cc(-c3cccc(-n4cnc5c(N)ncnc54)c3)nn2)[C@]2(C)[C@H](C)CC[C@]3(CCC(=O)[C@H]32)[C@@H](C)[C@@H]1O [prior art compound 7, reference compound] | 0.06 (≈ 0.0942 µM) | – | – | – | – | –
Retapamulin [reference compound] | – | – | – | – | – | in vitro susceptibility (MIC) MRSA USA3000 [1]: 0.25 mg/L; in vitro susceptibility (MIC) E. Faecalis [2]: 0.12 mg/L; in vitro susceptibility (MIC) VRE 5 [3]: 0.03 mg/L; in vitro susceptibility (MIC) VRE 1 [4]: 0.03 mg/L; in vitro susceptibility (MIC) S. Pneumonia [5]: 0.12 mg/L
C=C[C@]1(C)C[C@@H](OC(=O)CSC2CC[C@@H](N)C[C@H]2O)[C@]2(C)[C@H](C)CC[C@]3(CCC(=O)[C@H]32)[C@@H](C)[C@@H]1O.CC(=O)O (stereo partly shown) [Lefamulin.Ac, reference compound] | – | 0.06 | 0.12 | 0.12 | 0.12 | –
C=C[C@]1(C)C[C@@H](OC(=O)Cn2cc(-c3ccc(Cn4cnc5c(N)ncnc54)nc3)nn2)[C@]2(C)[C@H](C)CC[C@]3(CCC(=O)[C@H]32)[C@@H](C)[C@@H]1O [C7, 22-[4-(6-((6-Amino-9H-purin-9-yl)methyl)pyridin-3-yl)-1H-1,2,3-triazol-1-yl]-22-deoxypleuromutilin] | – | 0.25 (≈ 0.382 µM) | 0.12 (≈ 0.184 µM) | 0.12 (≈ 0.184 µM) | 0.25 (≈ 0.382 µM) | in vitro susceptibility (MIC) MRSA USA3000 ([1]; listed as drawing 80): 0.03 mg/L
C=C[C@]1(C)C[C@@H](OC(=O)Cn2cc(-c3ccc(Cn4cc(C)c(=O)[nH]c4=O)cc3)nn2)[C@]2(C)[C@H](C)CC[C@]3(CCC(=O)[C@H]32)[C@@H](C)[C@@H]1O [C20, 22-[4-(4-((Thymine-1-yl)methyl)phenyl)-1,2,3-triazol-1-yl]-22-deoxypleuromutilin] | 0.12 (≈ 0.186 µM) | 1 (≈ 1.55 µM) | 0.5 (≈ 0.777 µM) | 0.5 (≈ 0.777 µM) | 1 (≈ 1.55 µM) | –
C=C[C@]1(C)C[C@@H](OC(=O)Cn2cc(-c3cccc(Oc4ncnc5[nH]cnc45)c3)nn2)[C@]2(C)[C@H](C)CC[C@]3(CCC(=O)[C@H]32)[C@@H](C)[C@@H]1O [C16, 22-[4-(3-((9H-purin-6-yl)oxy)phenyl)-1,2,3-triazole-1-yl]-22-deoxypleuromutilin] | 0.12 (≈ 0.188 µM) | – | – | – | – | –
C=C[C@]1(C)C[C@@H](OC(=O)Cn2cc(-c3cccc(Oc4nc(N)nc5[nH]cnc45)c3)nn2)[C@]2(C)[C@H](C)CC[C@]3(CCC(=O)[C@H]32)[C@@H](C)[C@@H]1O [C17, 22-[4-(3-((2-amino-9H-purin-6-yl)oxy)phenyl)-1,2,3-triazole-1-yl]-22-deoxypleuromutilin] | 0.12 (≈ 0.183 µM) | – | – | – | – | –
C=C[C@]1(C)C[C@@H](OC(=O)Cn2cc(-c3ccc(Cn4cnc5c(N6CCNCC6)ncnc54)cc3)nn2)[C@]2(C)[C@H](C)CC[C@]3(CCC(=O)[C@H]32)[C@@H](C)[C@@H]1O [C11, 22-[4-(4-((6-(piperazin-1-yl)-9H-purin-9-yl)methyl)phenyl)-1H-1,2,3-triazol-1-yl]-22-deoxypleuromutilin] | 0.25 (≈ 0.346 µM) | 0.12 (≈ 0.166 µM) | 0.12 (≈ 0.166 µM) | 0.06 (≈ 0.0831 µM) | 0.12 (≈ 0.166 µM) | –
C=C[C@]1(C)C[C@@H](OC(=O)Cn2cc(-c3ccc(CN4C(=O)c5ccccc5C4=O)cc3)nn2)[C@]2(C)[C@H](C)CC[C@]3(CCC(=O)[C@H]32)[C@@H](C)[C@@H]1O [C2, 22-[4-(4-((N-phthalimide)methyl)phenyl)-1H-1,2,3-triazol-1-yl]-22-deoxypleuromutilin] | 0.25 (≈ 0.376 µM) | 8 (≈ 12 µM) | > 8 | > 8 | 4 (≈ 6.02 µM) | –
C=C[C@]1(C)C[C@@H](OC(=O)Cn2cc(-c3cccc(NC(=O)c4ccccc4)c3)nn2)[C@]2(C)[C@H](C)CC[C@]3(CCC(=O)[C@H]32)[C@@H](C)[C@@H]1O [C14, 22-[4-(3-benzamidophenyl)-1,2,3-triazole-1-yl]-22-deoxypleuromutilin] | 0.5 (≈ 0.8 µM) | – | – | – | – | –
C=C[C@]1(C)C[C@@H](OC(=O)Cn2cc(-c3ccc([C@@H](C)n4cnc5c(N6CCNCC6)ncnc54)cc3)nn2)[C@]2(C)[C@H](C)CC[C@]3(CCC(=O)[C@H]32)[C@@H](C)[C@@H]1O [C13, 22-[4-(4-((R)-1-(6-(piperazin-1-yl)-9H-purin-9-yl)ethyl)phenyl)-1H-1,2,3-triazol-1-yl]-22-deoxypleuromutilin] | 0.5 (≈ 0.679 µM) | 0.25 (≈ 0.34 µM) | 0.12 to 0.25 (≈ 0.163 to 0.34 µM) | 0.25 (≈ 0.34 µM) | 0.25 (≈ 0.34 µM) | –
C=C[C@]1(C)C[C@@H](CC(=O)Cn2cc(-c3ccc(-n4cnc5c(N)ncnc54)cc3)nn2)[C@]2(C)[C@H](C)CC[C@]3(CCC(=O)[C@H]32)[C@@H](C)[C@@H]1O [prior art compound 8, reference compound] | 0.5 (≈ 0.785 µM) | – | – | – | – | –
